# Data: US20250230193A1, “CYCLIC COMPOUND HAVING SELECTIVE KRAS INHIBITORY EFFECT ON HRAS AND NRAS” (CHUGAI SEIYAKU KABUSHIKI KAISHA, priority 2022, published 2025)
# Tests used:
# [1] = biological target: GDP-bound NRAS wild-type protein (Homo sapiens, UniProt P01111); assay: Binding to NRAS by surface plasmon resonance (SPR), Single Cycle Kinetics; conditions: KD ratio, GDP-bound NRAS wild-type vs GDP-bound KRAS wild-type, SPR
# [2] = biological target: GDP-bound HRAS wild-type protein (Homo sapiens, UniProt P01112); assay: Binding to HRAS by surface plasmon resonance (SPR), Single Cycle Kinetics; conditions: KD ratio, GDP-bound HRAS wild-type vs GDP-bound KRAS wild-type, SPR
# Sequence of GDP-bound HRAS wild-type protein (P01112 whole entry): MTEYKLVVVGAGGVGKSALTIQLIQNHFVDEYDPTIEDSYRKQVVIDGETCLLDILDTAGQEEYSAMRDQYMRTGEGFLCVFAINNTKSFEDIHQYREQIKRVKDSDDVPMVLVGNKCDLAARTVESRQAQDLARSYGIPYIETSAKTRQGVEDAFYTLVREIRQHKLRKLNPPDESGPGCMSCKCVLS
# Sequence of GDP-bound NRAS wild-type protein (P01111 whole entry): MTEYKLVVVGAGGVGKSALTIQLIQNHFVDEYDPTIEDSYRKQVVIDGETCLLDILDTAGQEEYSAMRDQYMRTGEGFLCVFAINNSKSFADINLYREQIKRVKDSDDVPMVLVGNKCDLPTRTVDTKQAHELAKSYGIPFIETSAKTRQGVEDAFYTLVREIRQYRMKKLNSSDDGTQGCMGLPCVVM
Structure (SMILES),NRAS/KRAS (ratio of KD value with respect to NRAS to KD value with respect to KRAS) [1],HRAS/KRAS (ratio of KD value with respect to HRAS to KD value with respect to KRAS) [2]
CC[C@H](C)[C@@H]1NC(=O)[C@H](CC)N(C)C(=O)C[C@@H](C(=O)N2CCOCC2)N(C)C(=O)[C@H](C2CCCC2)N(C)C(=O)C2(CCCC2)NC(=O)[C@@H]2CCCN2C(=O)[C@H](CCc2ccc(C(F)(F)F)c(Cl)c2)NC(=O)CN(C)C(=O)[C@H](Cc2ccc(F)cc2)N2CCCCC[C@@H](C2=O)N(C)C(=O)CN(C)C1=O [PP0959],B (a compound having 3 or more and less than 10 is denoted as B),B (a compound having 3 or more and less than 10 is denoted as B)
CC[C@H](C)[C@@H]1NC(=O)[C@H](COC)N(C)C(=O)C[C@@H](C(=O)N2CCOCC2)N(C)C(=O)[C@H](C2CCCC2)N(C)C(=O)C2(CCCC2)NC(=O)[C@@H]2CCCN2C(=O)[C@H](CCc2ccc(C(F)(F)F)c(Cl)c2)NC(=O)CN(C)C(=O)[C@H](Cc2ccc(F)cc2)N2CCCCC[C@@H](C2=O)N(C)C(=O)CN(C)C1=O [PP0960],B (a compound having 3 or more and less than 10 is denoted as B),B (a compound having 3 or more and less than 10 is denoted as B)
CC[C@H](C)[C@@H]1NC(=O)[C@H](Cc2ccccc2)N(C)C(=O)C[C@@H](C(=O)N2CCOCC2)N(C)C(=O)[C@H](C2CCCC2)N(C)C(=O)C2(CCCC2)NC(=O)[C@@H]2CCCN2C(=O)[C@H](CCc2ccc(C(F)(F)F)c(Cl)c2)NC(=O)CN(C)C(=O)[C@H](Cc2ccc(F)cc2)N2CCCCC[C@@H](C2=O)N(C)C(=O)CN(C)C1=O [PP0961],B (a compound having 3 or more and less than 10 is denoted as B),B (a compound having 3 or more and less than 10 is denoted as B)
CC[C@H](C)[C@@H]1NC(=O)[C@H](Cc2cccc(F)c2)N(C)C(=O)C[C@@H](C(=O)N2CCOCC2)N(C)C(=O)[C@H](C2CCCC2)N(C)C(=O)C2(CCCC2)NC(=O)[C@@H]2CCCN2C(=O)[C@H](CCc2ccc(C(F)(F)F)c(Cl)c2)NC(=O)CN(C)C(=O)[C@H](Cc2ccc(F)cc2)N2CCCCC[C@@H](C2=O)N(C)C(=O)CN(C)C1=O [PP0962],B (a compound having 3 or more and less than 10 is denoted as B),B (a compound having 3 or more and less than 10 is denoted as B)
CC[C@H](C)[C@@H]1NC(=O)[C@H](Cc2cccc(Cl)c2)N(C)C(=O)C[C@@H](C(=O)N2CCOCC2)N(C)C(=O)[C@H](C2CCCC2)N(C)C(=O)C2(CCCC2)NC(=O)[C@@H]2CCCN2C(=O)[C@H](CCc2ccc(C(F)(F)F)c(Cl)c2)NC(=O)CN(C)C(=O)[C@H](Cc2ccc(F)cc2)N2CCCCC[C@@H](C2=O)N(C)C(=O)CN(C)C1=O [PP0963],B (a compound having 3 or more and less than 10 is denoted as B),B (a compound having 3 or more and less than 10 is denoted as B)
CC[C@H](C)[C@@H]1NC(=O)[C@H](CC(C)C)N(C)C(=O)C[C@@H](C(=O)N2CCOCC2)N(C)C(=O)[C@H](C2CCCC2)N(C)C(=O)C2(CCCC2)NC(=O)[C@@H]2CCCN2C(=O)[C@H](CCc2cc(F)c(C(F)(F)F)c(F)c2)NC(=O)CN(C)C(=O)[C@H](Cc2ccc(F)cc2)N2CCCCC[C@@H](C2=O)N(C)C(=O)CN(C)C1=O [PP0964],B (a compound having 3 or more and less than 10 is denoted as B),B (a compound having 3 or more and less than 10 is denoted as B)
CCO[C@@H]1C[C@H]2C(=O)NC3(CCCC3)C(=O)N(C)[C@@H](C3CCCC3)C(=O)N(C)[C@H](C(=O)N3CCOCC3)CC(=O)N(C)[C@@H](CC(C)C)C(=O)N[C@@H]([C@@H](C)CC)C(=O)N(C)CC(=O)N(C)[C@H]3CCCCCN(C3=O)[C@@H](Cc3ccc(F)cc3)C(=O)N(C)CC(=O)N[C@@H](CCc3ccc(C(F)(F)F)c(Cl)c3)C(=O)N2C1 [PP0965],B (a compound having 3 or more and less than 10 is denoted as B),B (a compound having 3 or more and less than 10 is denoted as B)
CC[C@H](C)[C@@H]1NC(=O)[C@H](CC(C)C)N(C)C(=O)C[C@@H](C(=O)N2CCOCC2)N(C)C(=O)[C@H](C2CCCC2)N(C)C(=O)C2(CCCC2)NC(=O)[C@@H]2CC(F)(F)CN2C(=O)[C@H](CCc2ccc(C(F)(F)F)c(Cl)c2)NC(=O)CN(C)C(=O)[C@H](Cc2ccc(F)cc2)N2CCCCC[C@@H](C2=O)N(C)C(=O)CN(C)C1=O [PP0966],B (a compound having 3 or more and less than 10 is denoted as B),B (a compound having 3 or more and less than 10 is denoted as B)
CC[C@H](C)[C@@H]1NC(=O)[C@H](CC(C)C)N(C)C(=O)C[C@@H](C(=O)N2CCOCC2)N(C)C(=O)[C@H](C2CCCC2)N(C)C(=O)C2(CCC2)NC(=O)[C@@H]2CCCN2C(=O)[C@H](CCc2ccc(C(F)(F)F)c(Cl)c2)NC(=O)CN(C)C(=O)[C@H](Cc2ccc(F)cc2)N2CCCCC[C@@H](C2=O)N(C)C(=O)CN(C)C1=O [PP0967],B (a compound having 3 or more and less than 10 is denoted as B),B (a compound having 3 or more and less than 10 is denoted as B)
CCO[C@@H]1C[C@H]2C(=O)NC3(CCC3)C(=O)N(C)[C@@H](C3CCCC3)C(=O)N(C)[C@H](C(=O)N3CCOCC3)CC(=O)N(C)[C@@H](CC(C)C)C(=O)N[C@@H]([C@@H](C)CC)C(=O)N(C)CC(=O)N(C)[C@H]3CCCCCN(C3=O)[C@@H](Cc3ccc(F)cc3)C(=O)N(C)CC(=O)N[C@@H](CCc3ccc(C(F)(F)F)c(Cl)c3)C(=O)N2C1 [PP0968],B (a compound having 3 or more and less than 10 is denoted as B),B (a compound having 3 or more and less than 10 is denoted as B)
CC[C@H](C)[C@@H]1NC(=O)[C@H](CC(C)C)N(C)C(=O)C[C@@H](C(=O)N2CCOCC2)N(C)C(=O)[C@H](C2CCCC2)N(C)C(=O)C2(CCC2)NC(=O)[C@@H]2CC(F)(F)CN2C(=O)[C@H](CCc2ccc(C(F)(F)F)c(Cl)c2)NC(=O)CN(C)C(=O)[C@H](Cc2ccc(F)cc2)N2CCCCC[C@@H](C2=O)N(C)C(=O)CN(C)C1=O [PP0969],B (a compound having 3 or more and less than 10 is denoted as B),B (a compound having 3 or more and less than 10 is denoted as B)
CC[C@H](C)[C@@H]1NC(=O)[C@H](CC(C)C)N(C)C(=O)C[C@@H](C(=O)N2CCOCC2)N(CC)C(=O)[C@H](C2CCCC2)N(C)C(=O)C2(CCCC2)NC(=O)[C@@H]2CCCN2C(=O)[C@H](CCc2ccc(C(F)(F)F)c(Cl)c2)NC(=O)CN(C)C(=O)[C@H](Cc2ccc(F)cc2)N2CCCCC[C@@H](C2=O)N(C)C(=O)CN(C)C1=O [PP0970],B (a compound having 3 or more and less than 10 is denoted as B),B (a compound having 3 or more and less than 10 is denoted as B)
CC[C@H](C)[C@@H]1NC(=O)[C@H](CC(C)C)N(C)C(=O)C[C@@H](C(=O)N(C)C)N(C)C(=O)[C@H](C2CCCC2)N(C)C(=O)C2(CCCC2)NC(=O)[C@@H]2CCCN2C(=O)[C@H](CCc2ccc(C(F)(F)F)c(Cl)c2)NC(=O)CN(C)C(=O)[C@H](Cc2ccc(F)cc2)N2CCCCC[C@@H](C2=O)N(C)C(=O)CN(C)C1=O [PP0971],B (a compound having 3 or more and less than 10 is denoted as B),B (a compound having 3 or more and less than 10 is denoted as B)
CCO[C@@H]1C[C@H]2C(=O)NC3(CCC3)C(=O)N(C)[C@@H](C3CCCC3)C(=O)N(C)[C@H](C(=O)N(C)C)CC(=O)N(C)[C@@H](CC(C)C)C(=O)N[C@@H]([C@@H](C)CC)C(=O)N(C)CC(=O)N(C)[C@H]3CCCCCN(C3=O)[C@@H](Cc3ccc(F)cc3)C(=O)N(C)CC(=O)N[C@@H](CCc3ccc(C(F)(F)F)c(Cl)c3)C(=O)N2C1 [PP0972],B (a compound having 3 or more and less than 10 is denoted as B),B (a compound having 3 or more and less than 10 is denoted as B)
CC[C@H](C)[C@@H]1NC(=O)[C@H](CC(C)C)N(C)C(=O)C[C@@H](C(=O)N(C)C)N(C)C(=O)[C@H](C2CCCC2)N(C)C(=O)C2(CCC2)NC(=O)[C@@H]2CC(F)(F)CN2C(=O)[C@H](CCc2ccc(C(F)(F)F)c(Cl)c2)NC(=O)CN(C)C(=O)[C@H](Cc2ccc(F)cc2)N2CCCCC[C@@H](C2=O)N(C)C(=O)CN(C)C1=O [PP0973],B (a compound having 3 or more and less than 10 is denoted as B),B (a compound having 3 or more and less than 10 is denoted as B)
CCO[C@@H]1C[C@H]2C(=O)NC3(CCC3)C(=O)N(C)[C@@H](C3CCCC3)C(=O)N(CCC3CCCC3)[C@H](C(=O)N(C)C)CC(=O)N(C)[C@@H](CC(C)C)C(=O)N[C@@H]([C@@H](C)CC)C(=O)N(C)CC(=O)N(C)[C@H]3CCCCCN(C3=O)[C@@H](Cc3ccc(F)cc3)C(=O)N(C)CC(=O)N[C@@H](CCc3ccc(C(F)(F)F)c(Cl)c3)C(=O)N2C1 [PP0976],B (a compound having 3 or more and less than 10 is denoted as B),B (a compound having 3 or more and less than 10 is denoted as B)
